Some results are limits rather than exact numbers.

Test [1] has as its system MDA-MB-231 (breast cancer) cell line. In words: Cell growth inhibition experiment (SRB), MDA-MB-231. The format is cell-based, human. As to conditions: Homo sapiens, MDA-MB-231, 96 h, 96 hours incubation. How it is done: (§1) The cell lines below were used in order to confirm the efficacy of the compounds synthesized in Examples 1 to 60. Human PANC-1 (pancreatic cancer) and MDA-MB-231 (breast cancer) cell lines were obtained from the American Type Culture Collection (ATCC; Manassas, Va.); and HN31 (head and neck cancer) and UMRC2 (kidney cancer) cell lines were secured from the United States National Institutes of Health (Bethesda, Md.). The MDA-MB-231, UMRC2, HN31, and PANC-1 cell lines were cultured in Dulbecco modified Eagle medium (DMEM; Invitrogen, Carlsbad, Calif.) containing FBS (10%), HEPES (10 mM), penicillin (100 U/mL), and streptomycin (100 μg/mL). All cell lines were cultured in an incubator (37° C., 5% CO2).
(§2) The 4-(aryl)-N-(3-alkoxyfuro[2,3-b]pyrazin-2-yl)-piperazine-1-carboxamide derivative compounds synthesized according to Examples 1 to 60 of the present invention were treated with various human tissue-derived cancer cell lines cultured according to Experimental Example 1, and thus the inhibitory effect of the growth of human cancer cells was confirmed. The cell growth inhibition experiment was conducted using the sulforhodamine B (SRB) technique (Skehan et al., J. National Cancer Institute, 1990, 82: 1107-1112). Specifically, each cell line was seeded in a 96-well plate at a density of 2 to 3×10^3 cells/well, cultured overnight, and then treated with the 4-(aryl)-N-(3-alkoxyfuro[2,3-b]pyrazin-2-yl)-piperazine-1-carboxamide derivative compounds of the present invention. The experiment was repeated 3 times for each compound. Cells treated with each compound were additionally incubated for 96 hours, fixed with 10% trichloroacetic acid (TCA), and then left at 4° C. for 1 hour. The resultant was washed 3 times with distilled water. Thereafter, each cell was treated with 0.4% sulforhodamine B dissolved in 1% acetic acid, stained for 30 minutes, and then washed 4 times with 1% acetic acid. The resultant was dried in the air. After shaking the resultant in Tris solution (10 mM) for 5 minutes, the absorbance was measured at 530 nm using a Benchmark Plus Microplate reader (Bio-Rad Laboratories, Hercules, Calif.).
(§3) In order to convert the OD530 value to the number of viable cells per each well, the measured OD530 value was compared to the standard OD530-vs.-cell number curve of each cell line. The percent survival was calculated using the following formula: % survival=Nlive cells(test)/Nlive cells(control)×100

The subject of test [2] is UMRC2 (kidney cancer) cell line. The test can be described thus: Cell growth inhibition experiment (SRB), UMRC2. It is filed as cell-based, human. As to conditions: Homo sapiens, UMRC2, 96 h, 96 hours incubation. How it is done:
as §1, §2, §3

Test [3] has as its system PANC-1 (pancreatic cancer) cell line. In words: Cell growth inhibition experiment (SRB), PANC-1. It is filed as cell-based. Particulars: Homo sapiens, PANC-1, 96 h, 96 hours incubation. How it is done:
as §1, §2, §3

For test [4], the system named is HN31 (head and neck cancer) cell line. In words: Cell growth inhibition experiment (SRB), HN31. The format is cell-based, human. Particulars: Homo sapiens, 96 h, 96 hours incubation. How it is done:
as §1, §2, §3

In test [5] the test system is A549. In words: Cell growth inhibition experiment (SRB), A549. It is filed as cell-based. Particulars: Homo sapiens, A549, 96 h, 96 hours incubation, read-out: IC50 (μM) for cancer cell line A549. How it is done: as §2, §3
The test system of test [6] is HEK293. The test can be described thus: Cell growth inhibition experiment (SRB), HEK293. It is filed as cell-based, human. As to conditions: Homo sapiens, HEK293, 96 h, 96 hours incubation, read-out: IC50 (μM) for cancer cell line HEK293. How it is done:
as §2, §3

In test [7] the test system is HUVEC. In words: Cell growth inhibition experiment (SRB), HUVEC. It is filed as cell-based, human. As to conditions: Homo sapiens, HUVEC, 96 h, 96 hours incubation, read-out: IC50 (μM) […]. How it is done:
as §2, §3

The test system of test [8] is HT29. The test can be described thus: Cell growth inhibition experiment (SRB), HT29. As to conditions: Homo sapiens, HT-29, 96 h, 96 hours incubation, read-out: IC50 (μM) for cancer cell line HT29. The format is cell-based, human. How it is done:
as §2, §3

Test [9] deals with SK-OV-3. The test can be described thus: Cell growth inhibition experiment (SRB), SK-OV-3. It is filed as cell-based, human. As to conditions: Homo sapiens, SK-OV-3, 96 h, 96 hours incubation, read-out: IC50 (μM) for cancer cell line SK-OV-3. How it is done: as §2, §3

What is called IC50 is the concentration that gives 50% inhibition. As for `CCOc1nc2oc(Cl)cc2nc1NC(=O)N1CCN(c2cc(F)cc(OC)c2)CC1` [Example 53, N-(6-Chloro-3-ethoxyfuro[2,3-b]pyrazin-2-yl)-4-(3-fluoro-5-methoxyphenyl)piperazine-1-carboxamide], the IC50 in [1] came out at 0.48 µM; in [2], 0.32 µM; in test [3], 0.56 µM; in test [4], 0.45 µM; in test [5], 1.68 µM; in [6] it was 1.98 µM. For the same compound, the half-inhibitory concentration (IC50) in test [7] was found to be 1.88 µM; in test [8], 1.67 µM; in test [9], 1.91 µM.
As to `COc1nc2occc2nc1NC(=O)N1CCN(c2cccc(OC(F)(F)F)c2)CC1` [Example 10, N-(3-Methoxyfuro[2,3-b]pyrazin-2-yl)-4-(3-(trifluoromethoxy)phenyl)piperazine-1-carboxamide], the half-inhibitory concentration (IC50) amounted to 1.02 µM in [1]; 1.13 µM in test [2]; 0.68 µM in [3]; 0.28 µM in test [4]; 1.14 µM in test [5]; 0.56 µM in [6]. Further, the IC50 in test [7] is 1.36 µM; in test [8], 1.27 µM; in test [9], 1.23 µM.
With `COc1cc(OCCN(C)C)cc(N2CCN(C(=O)Nc3nc4cc(Cl)oc4nc3OC)CC2)c1` [Example 44, N-(6-Chloro-3-methoxyfuro[2,3-b]pyrazin-2-yl)-4-(3-(2-(dimethylamino)ethoxy)-5-methoxyphenyl)piperazine-1-carboxamide], the IC50 turned out to be 0.43 µM in test [1]; 0.38 µM in test [2]; 0.61 µM in test [3]; 0.53 µM in test [4]; 0.36 µM in test [5]; 0.71 µM in [6]. Moreover, the IC50 is 0.66 µM in [7], 0.87 µM in test [8] and < 2.5 µM in test [9].
For the compound `COc1nc2oc(C)cc2nc1NC(=O)N1CCN(c2cc(F)cc(F)c2)CC1` [Example 27, 4-(3,5-Difluorophenyl)-N-(3-methoxy-6-methylfuro[2,3-b]pyrazin-2-yl)piperazine-1-carboxamide], the IC50 in [1] was 0.56 µM; in [2], 1.13 µM; in test [3], < 2.5 µM; in test [4], < 2.5 µM; in test [5], < 2.5 µM; in [6], < 2.5 µM. Further, the 50% inhibitory concentration (IC50) in test [7], in test [8] and in [9] was < 2.5 µM throughout.
Take `COc1cc(F)cc(N2CCN(C(=O)Nc3nc4ccoc4nc3OC)CC2)c1` [Example 3, 4-(3-Fluoro-5-methoxyphenyl)-N-(3-methoxyfuro[2,3-b]pyrazin-2-yl)piperazine-1-carboxamide]: the IC50 in [1] is 0.24 µM; in [2], 0.06 µM; in [3], 0.56 µM; in [4] it was 0.71 µM; in test [5], 2.11 µM; in test [6], < 2.5 µM. In addition, the IC50 was < 2.5 µM in [7], 1.53 µM in test [8] and 0.85 µM in [9].
As for `CCOc1nc2occc2nc1NC(=O)N1CCN(c2cc(F)cc(F)c2)CC1` [Example 17, 4-(3,5-Difluorophenyl)-N-(3-ethoxyfuro[2,3-b]pyrazin-2-yl)piperazine-1-carboxamide], the IC50 in test [1] was 0.24 µM; in test [2], 1.65 µM; in test [3], < 2.5 µM; in test [4] it was < 2.5 µM; in test [5], < 2.5 µM; in test [6], < 2.5 µM. The IC50 in test [7], in test [8] and in test [9] was < 2.5 µM each time.
Take `COc1nc2occc2nc1NC(=O)N1CCN(c2cc(F)cc(F)c2)CC1` [Example 7, 4-(3,5-difluorophenyl)-N-(3-methoxyfuro[2,3-b]pyrazin-2-yl)piperazine-1-carboxamide]: the IC50 in [1] is 1.78 µM; in test [2], 1.78 µM; in [3], 1.89 µM; in test [4] it was < 2.5 µM; in test [5] it was < 2.5 µM; in test [6], < 2.5 µM. Further, the concentration for half-maximal inhibition (IC50) in test [7], in [8] and in test [9] was < 2.5 µM each time.
With `COc1nc2oc(Cl)cc2nc1NC(=O)N1CCN(c2cc(F)cc(F)c2)CC1` [Example 47, N-(6-Chloro-3-methoxyfuro[2,3-b]pyrazin-2-yl)-4-(3,5-difluorophenyl)piperazine-1-carboxamide], the IC50 in [1] turned out to be 0.43 µM; in test [2], 0.68 µM; in test [3] it was 0.41 µM; in test [4], 0.68 µM; in test [5], 0.57 µM; in test [6], 0.63 µM. The results for the IC50 in test [7], in test [8] and in test [9] were 1.87 µM, 1.92 µM and 1.93 µM, respectively.
With `COc1nc2occc2nc1NC(=O)N1CCN(c2cc(F)cc(C(F)(F)F)c2)CC1` [Example 8, 4-(3-Fluoro-5-(trifluoromethyl)phenyl)-N-(3-methoxyfuro[2,3-b]pyrazin-2-yl)piperazine-1-carboxamide], the half-inhibitory concentration (IC50) is 0.98 µM in test [1]; 0.88 µM in [2]; 1.98 µM in test [3]; < 2.5 µM in [4]; < 2.5 µM in [5]; < 2.5 µM in test [6]. In addition, the IC50 in [7], in test [8] and in test [9] was < 2.5 µM in each case.
With `COc1cc(OCCN(C)C)cc(N2CCN(C(=O)Nc3nc4ccoc4nc3OC)CC2)c1` [Example 4, 4-(3-(2-(Dimethylamino)ethoxy)-5-methoxyphenyl)-N-(3-methoxyfuro[2,3-b]pyrazin-2-yl)piperazine-1-carboxamide], the half-maximal inhibitory concentration (IC50) is 1.13 µM in [1]; 0.54 µM in test [2]; 0.68 µM in [3]; 1.54 µM in [4]; < 2.5 µM in test [5]; < 2.5 µM in [6]. The values for the IC50 in test [7], in test [8] and in test [9] were 1.25 µM, < 2.5 µM and < 2.5 µM, respectively.
Consider `CCOc1nc2occc2nc1NC(=O)N1CCN(c2cc(C)cc(C)c2)CC1` [Example 15, 4-(3,5-Dimethylphenyl)-N-(3-ethoxyfuro[2,3-b]pyrazin-2-yl)piperazine-1-carboxamide], for which the half-inhibitory concentration (IC50) in test [1] is 0.24 µM; in test [2], 0.25 µM; in test [3], 1.12 µM; in [4], 0.78 µM; in [5], < 2.5 µM; in test [6] it was < 2.5 µM. Besides, the IC50 in test [7], in [8] and in test [9] was < 2.5 µM throughout.
Consider `COc1nc2oc(C)cc2nc1NC(=O)N1CCN(c2cc(C)cc(F)c2)CC1` [Example 26, 4-(3-Fluoro-5-methylphenyl)-N-(3-methoxy-6-methylfuro[2,3-b]pyrazin-2-yl)piperazine-1-carboxamide], for which the IC50 is 1.32 µM in [1]; 1.56 µM in [2]; < 2.5 µM in [3]; < 2.5 µM in test [4]; < 2.5 µM in test [5]; < 2.5 µM in [6]. In addition, the IC50 in test [7], in [8] and in test [9] was < 2.5 µM in each case.
In the case of `CCOc1nc2oc(C)cc2nc1NC(=O)N1CCN(c2cc(OC)cc(OCCN(C)C)c2)CC1` [Example 34, 4-(3-(2-(Dimethylamino)ethoxy)-5-methoxyphenyl)-N-(3-ethoxy-6-methylfuro[2,3-b]pyrazin-2-yl)piperazine-1-carboxamide], the IC50 in [1] stood at 0.36 µM; in test [2], 1.21 µM; in [3], 0.44 µM; in test [4], 1.02 µM; in test [5] it was 0.68 µM; in test [6], 0.44 µM. The 50% inhibitory concentration (IC50) in test [7], in test [8] and in test [9] was < 2.5 µM throughout.

(Values after US10800788B2, “4-(aryl)-N-(3-alkoxyfuro[2,3-b]pyrazin-2-yl)-piperazine-1-carboxamide derivative and antiproliferative effect thereof” (Dongguk University Industry-Academic Cooperation Foundation, priority 2016, dated 2020).)
